Assay results from PubChem BioAssay AID504780 (National Center for Advancing Translational Sciences (NCATS), 2011).
Converted amounts (≈) assume the structure as drawn.

Test system: kinetic aqueous solubility, PBS pH 7.4, LC-UV/MS
Assay: Identifying a Potential Treatment of Ataxia-Telangiectasia: Solubility Profiling
Conditions: hits give high values
From the text: Ataxia-telangiectasia (A-T) is a devastating and progressive disease for which, there is no cure. Although A-T is a multisystem disease, it is stereotyped characterized by its neurological symptoms such as truncal ataxia, due to cerebellar cortical degeneration of the Purkinje and granule cells. The underlying genetic cause of A-T is null mutations in the ATM (A-T mutated) gene. ATM is a nuclear serine/threonine kinase that functions as a master regulator of the cellular responses to double strand breaks (DSBs) in the DNA. Upon activation by DSBs, ATM phosphorylates a plethora of downstream targets, including KAP-1 on […]. KAP-1 phosphorylation occurs shortly in response to DSBs and mediates global chromatin relaxation, which facilitates DSB repair. The assay provider and the NCGC have developed assays to discover small molecules that compensate for the loss of ATM and have discovered a probe. The resulting probe is further characterized in several ADME assays. This bioassay provides profiling data on aqueous kinetic solubility (PBS @ pH 7.4) of one of the lead compounds developed in the ATM project. NIH Chemical Genomics Center [NCGC] NIH Molecular Libraries Probe Centers Network [MLPCN] MLPCN Grant: MH089030-01 Assay Submitter (PI): Wei Zheng and Yosef Shiloh
1. […] Concentration of the supernatant was determined by LC-UV or LC-MS/MS

For `CC(=O)c1c(O)c(C)c(O)c(Cc2c(O)c3c(c(C(=O)/C=C/c4ccccc4)c2O)OC(C)(C)C=C3)c1O`, the solubility was 250 µM (≈ 129 µg/mL).
